Results on four molecules are retold here after US12528837B2, “Aryl substituted polymyxin derivatives” (priority 2018, dated 2026).

≈ marks a conversion by molar mass, not a printed value. Like-named read-outs stand apart in the source and are kept apart here. Where a SMILES comes first, the peptide text is derived from it. Bridges are numbered along the chain shown (N, C = ends). [ ]: non-standard residue; d: D form. The star is where a group is joined. X6 = CC(C)Cc1cccc([C@@H](CN)CC(=O)*)c1; X9 = CC(C)c1cccc([C@H](CN)CC(=O)*)c1; X12 = NC[C@H](CC(=O)*)c1cccc(Br)c1; X13 = Cc1cccc([C@H](CN)CC(=O)*)c1; Dab = NCC[C@H](N)C(=O)O; Abu = CC[C@H](N)C(=O)O; Dap = NC[C@H](N)C(=O)O Some results are limits rather than exact numbers.

In one series the test system is E. coli CA58. It is filed as cell-based. In a few lines: (§1)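 First, isolated colonies from an 18-24 hour Mueller-Hinton plate were suspended and standardised to 0.5 McFarland. Testing was then carried out in duplicate. For repeatedly tested compounds the reported MIC, expressed in μg/mL, is the median result.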
A further series concerns K. pneumoniae CA64. The class given is cell-based. In a few lines: as §1
The test system of another series is P. aeruginosa CCUG 59347. The class given is cell-based. In a few lines:
as §1

Series [1] deals with A. baumannii ATCC BAA-747. It is filed as cell-based. The method, then:
(§2) The inoculum was prepared by making a direct suspension of isolated colonies (selected from an 18-24 hour Mueller-Hinton agar plate) adjusted to the 0.5 McFarland standard. […] The assays were performed in duplicate. […] The MIC values are quoted in μg/mL.

The next series relates to A. baumannii NCTC 13424. The class given is cell-based. As to the method: as §2
In the next series the test system is E. coli ATCC 25922. The class given is cell-based. As to the method:
as §2

For another series, the system named is K. pneumoniae ATCC 13822. The class given is cell-based. The method, then:
as §2

A further series concerns P. aeruginosa ATCC 27853. The class given is cell-based. As to the method:
as §2

Another series deals with HK-2 cells. In words: In vitro renal cell toxicity assay (HK-2). It is filed as cell-based. The method, boiled down:
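HK-2 cells seeded 7,500/well, adhered overnight, then exposed to compound for 24 h at 37° C, 5% CO2, with 5% water and 0.5% DMSO. Background-subtracted, vehicle-normalised dose-response fitted with bottom fixed at zero; IC50 reported relative to PMB in the same run, median where repeated.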

A short description of series [2]: Kidney drug level after subcutaneous dose in mouse. The class given is in vivo. The conditions noted are these: mouse, in vivo, sc, 17.2 mg/kg. In a few lines: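 Mice were euthanised four hours after subcutaneous dosing. Both kidneys were trimmed, weighed, snap-frozen, then homogenised with zirconium oxide beads. After centrifugation (13,000 rpm, 6 °C, 10 min), supernatants were analysed by LC-MS-MS.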

The mark [3] stands for this setting: cation-adjusted Mueller-Hinton Broth, 18-20 h, 35° C.

`CC(C)C[C@H]1NC(=O)[C@H](CCN)NC(=O)[C@@H](NC(=O)[C@H](CN)NC(=O)[C@@H](NC(=O)C[C@@H](CN)c2cccc(C(C)C)c2)[C@@H](C)O)CCNC(=O)[C@H]([C@@H](C)O)NC(=O)[C@H](CCN)NC(=O)[C@H](CCN)NC(=O)[C@H]([C@@H](C)O)NC1=O` [Example 20, (R)-4-amino-3-(3- isopropylphenyl) butanoyl-Thr-Dap- Cyclo[Dab-Dab-DLeu- Thr-Dab-Dab-Thr]] (X9-T[Dap][Dab][Dab][dL]T[Dab][Dab]T; lactam 3-C): the “MIC E. coli CA58” value in the series with E. coli CA58 (setting [3]) is 64 µg/mL (≈ 57.8 µM). In the series with K. pneumoniae CA64 (setting [3]), the “MIC K. pneumoniae CA64” value was found to be 64 µg/mL (≈ 57.8 µM). In addition, in the series with P. aeruginosa CCUG 59347 (setting [3]), the “MIC P. aeruginosa CCUG 59347” value was 2 µg/mL (≈ 1.81 µM). The “MIC A. baumannii ATCC BAA-747” value in series [1] (setting [3]) stood at 2 µg/mL (≈ 1.81 µM). For the same molecule, in the series with A. baumannii NCTC 13424 (setting [3]), the “MIC A. baumannii NCTC 13424” value stood at 1 µg/mL (≈ 0.904 µM). Further, in the series with E. coli ATCC 25922 (setting [3]), the “MIC E. coli ATCC 25922” value was 1 µg/mL (≈ 0.904 µM). For the same molecule, in the series with K. pneumoniae ATCC 13822 (setting [3]), the “MIC K. pneumoniae ATCC 13822” value is 2 µg/mL (≈ 1.81 µM). Also, the “MIC P. aeruginosa ATCC 27853” value in the series on P. aeruginosa ATCC 27853 (setting [3]) is 0.5 µg/mL (≈ 0.452 µM).

With `Cc1cccc([C@H](CN)CC(=O)N[C@H](C(=O)N[C@@H](CN)C(=O)N[C@H]2CCNC(=O)[C@H]([C@@H](C)O)NC(=O)[C@H](CCN)NC(=O)[C@H](CCN)NC(=O)[C@H](CC(C)C)NC(=O)[C@@H](Cc3ccccc3)NC(=O)[C@H](CCN)NC2=O)[C@@H](C)O)c1` [Example 22, (R)-4-amino-3-(m- toly)butanoyl-Thr- Dap-Cyclo[Dab-Dab- DPhe-Leu-Dab-Dab- Thr]] (X13-T[Dap][Dab][Dab][dF]L[Dab][Dab]T; lactam 3-C), the “MIC E. coli CA58” value against E. coli CA58 (setting [3]) was 16 µg/mL (≈ 14.2 µM). In addition, the “MIC K. pneumoniae CA64” value against K. pneumoniae CA64 (setting [3]) was determined as 8 µg/mL (≈ 7.12 µM). Also, the “MIC P. aeruginosa CCUG 59347” value in the series on P. aeruginosa CCUG 59347 (setting [3]) came to 0.5 µg/mL (≈ 0.445 µM). Further, the “MIC A. baumannii ATCC BAA-747” value in [1] (setting [3]) is 1 µg/mL (≈ 0.889 µM). For the same molecule, the “MIC A. baumannii NCTC 13424” value with A. baumannii NCTC 13424 (setting [3]) amounted to 1 µg/mL (≈ 0.889 µM). Besides, the “MIC E. coli ATCC 25922” value against E. coli ATCC 25922 (setting [3]) was found to be 0.25 µg/mL (≈ 0.222 µM). Also, in the series with K. pneumoniae ATCC 13822 (setting [3]), the “MIC K. pneumoniae ATCC 13822” value stood at 0.25 µg/mL (≈ 0.222 µM). Further, the “MIC P. aeruginosa ATCC 27853” value against P. aeruginosa ATCC 27853 (setting [3]) came out at 0.25 µg/mL (≈ 0.222 µM).

For the molecule `CC[C@@H]1NC(=O)[C@@H](CC(C)C)NC(=O)[C@H](CCN)NC(=O)[C@@H](NC(=O)[C@H](CN)NC(=O)[C@@H](NC(=O)C[C@H](CN)c2cccc(CC(C)C)c2)[C@@H](C)O)CCNC(=O)[C@H]([C@@H](C)O)NC(=O)[C@H](CCN)NC(=O)[C@H](CCN)NC1=O` [Example 26, (S)-4-amino-3-(3- isobutylphenyl)butanoyl- Thr-Dap- Cyclo[Dab-Dab-DLeu- Abu-Dab-Dab-Thr]] (X6-T[Dap][Dab][Dab][dL][Abu][Dab][Dab]T; lactam 3-C), in the series with HK-2 cells, the “HK-2 rel to PMB” value is reported as greater than 58. This molecule also returned a tissue level at time at 4 h in series [2] of 353000 ng/g. Moreover, the “MIC E. coli CA58” value against E. coli CA58 (CA58) amounted to 8 µg/mL (≈ 7.24 µM). Besides, the “MIC K. pneumoniae CA64” value in the series on K. pneumoniae CA64 (CA64) amounted to 8 µg/mL (≈ 7.24 µM). The “MIC P. aeruginosa CCUG 59347” value in the series on P. aeruginosa CCUG 59347 (CCUG 59347) was found to be 0.5 µg/mL (≈ 0.453 µM). Besides, in series [1] (ATCC BAA-747), the “MIC A. baumannii ATCC BAA-747” value turned out to be 0.06 µg/mL (≈ 0.0543 µM). Besides, in the series with A. baumannii NCTC 13424 (NCTC 13424), the “MIC A. baumannii NCTC 13424” value stood at 0.03 µg/mL (≈ 0.0272 µM). Further, the “MIC E. coli ATCC 25922” value against E. coli ATCC 25922 (ATCC 25922) is 0.06 µg/mL (≈ 0.0543 µM). In the series with K. pneumoniae ATCC 13822 (ATCC 13822), the “MIC K. pneumoniae ATCC 13822” value is 0.5 µg/mL (≈ 0.453 µM). In addition, the “MIC P. aeruginosa ATCC 27853” value in the series on P. aeruginosa ATCC 27853 (ATCC 27853) worked out at 0.25 µg/mL (≈ 0.226 µM).

`CC[C@@H]1NC(=O)[C@@H](CC(C)C)NC(=O)[C@H](CCN)NC(=O)[C@@H](NC(=O)[C@H](CN)NC(=O)[C@@H](NC(=O)C[C@@H](CN)c2cccc(Br)c2)[C@@H](C)O)CCNC(=O)[C@H]([C@@H](C)O)NC(=O)[C@H](CCN)NC(=O)[C@H](CCN)NC1=O` [Example 33, (R)-4-amino-3-(3- bromophenyl)butanoyl- Thr-Dap-Cyclo[Dab- Dab-DLeu-Abu-Dab- Dab-Thr],] (X12-T[Dap][Dab][Dab][dL][Abu][Dab][Dab]T; lactam 3-C): in the series on E. coli CA58 (setting [3]), the “MIC E. coli CA58” value is 64 µg/mL (≈ 56.8 µM). Moreover, the “MIC K. pneumoniae CA64” value in the series with K. pneumoniae CA64 (setting [3]) was found to be 16 µg/mL (≈ 14.2 µM). In addition, in the series on P. aeruginosa CCUG 59347 (setting [3]), the “MIC P. aeruginosa CCUG 59347” value was 0.5 µg/mL (≈ 0.444 µM). The “MIC A. baumannii ATCC BAA-747” value in series [1] (setting [3]) is 1 µg/mL (≈ 0.887 µM). In addition, the “MIC A. baumannii NCTC 13424” value in the series with A. baumannii NCTC 13424 (setting [3]) stood at 1 µg/mL (≈ 0.887 µM). Besides, in the series on E. coli ATCC 25922 (setting [3]), the “MIC E. coli ATCC 25922” value was 0.5 µg/mL (≈ 0.444 µM). For the same molecule, the “MIC K. pneumoniae ATCC 13822” value against K. pneumoniae ATCC 13822 (setting [3]) turned out to be 0.5 µg/mL (≈ 0.444 µM). For the same molecule, the “MIC P. aeruginosa ATCC 27853” value against P. aeruginosa ATCC 27853 (setting [3]) came out at 0.5 µg/mL (≈ 0.444 µM).
